The results in this text go back to patent US7709503B2, “Pyrrol derivatives with antibacterial activity” (AstraZeneca AB, priority 2003, dated 2010).

In one data set the test system is Streptococcus pneumoniae. Nature of the data set: Bacterial susceptibility testing in liquid media (Minimum Inhibitory Concentration). It is filed as cell-based. As to conditions: against Streptococcus pneumoniae, 37 degrees C., 24 hrs, lowest concentration able to reduce growth by 80% or more. The procedure:
Compounds were tested for antimicrobial activity by susceptibility testing in liquid media. Compounds were dissolved in dimethylsulfoxide and tested in 10 doubling dilutions in the susceptibility assays. The organisms used in the assay were grown overnight on suitable agar media and then suspended in a liquid medium appropriate for the growth of the organism. The suspension was a 0.5 McFarland and a further 1 in 10 dilution was made into the same liquid medium to prepare the final organism suspension in 100 μL. Plates were incubated under appropriate conditions at 37 degrees C. for 24 hrs prior to reading. The Minimum Inhibitory Concentration was determined as the lowest drug concentration able to reduce growth by 80% or more.

Each structure is given as a SMILES string. ≈ marks a conversion by molar mass, not a printed value.

The term MIC denotes the smallest concentration in the dilution series that meets the test's criterion for growth inhibition. Read a high MIC as a need for much substance. In the data set on Streptococcus pneumoniae, `Cc1[nH]c(C(=O)NC2CCN(c3nc(C#N)cs3)CC2)cc1Br` [Example 130, 4-Bromo-N-[1-(4-cyano-1,3-thiazol-2-yl)piperidin-4-yl]-5-methyl-1H-pyrrole-2-carboxamide] displayed an MIC of 2 µg/mL (≈ 5.07 µM).
By melting point is commonly meant the temperature, or range, at which the solid turns liquid. In the case of `Cc1[nH]c(C(=O)NC2CCN(c3cc(C(=O)O)nc4ccccc34)CC2)c(Cl)c1Cl` [Example 225, 4-(4-{[(3,4-Dichloro-5-methyl-1H-pyrrol-2-yl)carbonyl]amino}piperidin-1-yl)quinoline-2-carboxylic acid], the melting point lay in the range of 254 to 256 °C.
Regarding `Cc1[nH]c(C(=O)NC2CCN(c3cc(C(=O)O)on3)CC2)c(Cl)c1Cl` [Example 226, 3-(4-{[(3,4-Dichloro-5-methyl-1H-pyrrol-2-yl)carbonyl]amino}piperidin-1-yl)isoxazole-5-carboxylic acid], the melting point lay within 232 to 234 °C.
